From the supplement of paper PMC10307832

Experiments:
Test in all cases: relative viability (nuclei count vs DMSO), 5 days (fraction); higher = more cells survive
NCI-H1651 = test system: NCI-H1651
Outline: (§1)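 Lung cancer cell lines, seeded in 1536-well plates, were treated the following day by pin tool with a single drug or with five library-drug doses (not always all listed) in √10 steps on top of a fixed anchor-drug dose. Cells were fixed and nuclei stained in one step after 5 days, and nuclei were counted. Relative viability is the nuclei count for treated wells divided by that for vehicle wells, reported as medians of duplicate plates.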

SK-MES-1 = test system: SK-MES-1
Outline: as §1

NCI-H1395 = test system: NCI-H1395
Outline: as §1

LC-2-ad = test system: LC-2-ad
Outline: as §1

PC-3 [JPC-3] = test system: PC-3 [JPC-3]
Outline: as §1

NCI-H2342 = test system: NCI-H2342
Outline: as §1

NCI-H1755 = test system: NCI-H1755
Outline: as §1

NCI-H2228 = test system: NCI-H2228
Outline: as §1

NCI-H1793 = test system: NCI-H1793
Outline: as §1

NCI-H1437 = test system: NCI-H1437
Outline: as §1

EMC-BAC-2 = test system: EMC-BAC-2
Outline: as §1

NCI-H2347 = test system: NCI-H2347
Outline: as §1

EKVX = test system: EKVX
Outline: as §1

NCI-H1944 = test system: NCI-H1944
Outline: as §1

NCI-H1915 = test system: NCI-H1915
Outline: as §1

NCI-H2087 = test system: NCI-H2087
Outline: as §1

LK-2 = test system: LK-2
Outline: as §1

CAL-12T = test system: CAL-12T
Outline: as §1

LXF-289 = test system: LXF-289
Outline: as §1

NCI-H661 = test system: NCI-H661
Outline: as §1

NCI-H2085 = test system: NCI-H2085
Outline: as §1

SK-LU-1 = test system: SK-LU-1
Outline: as §1

COR-L 105 = test system: COR-L 105
Outline: as §1

H3255 = test system: H3255
Outline: as §1

NCI-H522 = test system: NCI-H522
Outline: as §1

CCCCCCCCCCCC1=C(O)C(=O)C=C(O)C1=O [Embelin] + Cc1cc(Nc2cc(N3CCN(C)CC3)nc(Sc3ccc(NC(=O)C4CC4)cc3)n2)n[nH]1 [Tozasertib] (partner 0.1 µM)
relative viability (NCI-H1651; first compound 0.08 µM): 0.677
relative viability (NCI-H1651; first compound 0.8 µM): 0.657
relative viability (NCI-H1651; first compound 2.53 µM): 0.723
relative viability (NCI-H1651; first compound 8 µM): 0.807
relative viability (SK-MES-1; first compound 0.08 µM): 0.959
relative viability (SK-MES-1; first compound 0.8 µM): 0.989
relative viability (SK-MES-1; first compound 2.53 µM): 0.998
relative viability (SK-MES-1; first compound 8 µM): 0.621
relative viability (NCI-H1395; first compound 0.08 µM): 0.766
relative viability (NCI-H1395; first compound 0.8 µM): 0.725
relative viability (NCI-H1395; first compound 2.53 µM): 0.832
relative viability (NCI-H1395; first compound 8 µM): 0.722
relative viability (LC-2-ad; first compound 0.08 µM): 0.469
relative viability (LC-2-ad; first compound 0.8 µM): 0.421
relative viability (LC-2-ad; first compound 2.53 µM): 0.52
relative viability (LC-2-ad; first compound 8 µM): 0.441
relative viability (PC-3 [JPC-3]; first compound 0.08 µM): 0.843
relative viability (PC-3 [JPC-3]; first compound 0.8 µM): 0.944
relative viability (PC-3 [JPC-3]; first compound 2.53 µM): 0.927
relative viability (PC-3 [JPC-3]; first compound 8 µM): 0.991
relative viability (NCI-H2342; first compound 0.08 µM): 0.6
relative viability (NCI-H2342; first compound 0.8 µM): 0.641
relative viability (NCI-H2342; first compound 2.53 µM): 0.527
relative viability (NCI-H2342; first compound 8 µM): 0.479
relative viability (NCI-H1755; first compound 0.08 µM): 0.666
relative viability (NCI-H1755; first compound 0.8 µM): 0.647
relative viability (NCI-H1755; first compound 2.53 µM): 0.605
relative viability (NCI-H1755; first compound 8 µM): 0.555
relative viability (NCI-H2228; first compound 0.08 µM): 0.269
relative viability (NCI-H2228; first compound 0.8 µM): 0.247
relative viability (NCI-H2228; first compound 2.53 µM): 0.309
relative viability (NCI-H2228; first compound 8 µM): 0.238
relative viability (NCI-H1793; first compound 0.08 µM): 0.399
relative viability (NCI-H1793; first compound 0.8 µM): 0.44
relative viability (NCI-H1793; first compound 2.53 µM): 0.4
relative viability (NCI-H1793; first compound 8 µM): 0.327
relative viability (NCI-H1437; first compound 0.08 µM): 0.41
relative viability (NCI-H1437; first compound 0.8 µM): 0.417
relative viability (NCI-H1437; first compound 2.53 µM): 0.457
relative viability (NCI-H1437; first compound 8 µM): 0.448
relative viability (EMC-BAC-2; first compound 0.08 µM): 0.27
relative viability (EMC-BAC-2; first compound 0.8 µM): 0.318
relative viability (EMC-BAC-2; first compound 2.53 µM): 0.269
relative viability (EMC-BAC-2; first compound 8 µM): 0.267
relative viability (NCI-H2347; first compound 0.08 µM): 0.608
relative viability (NCI-H2347; first compound 0.8 µM): 0.465
relative viability (NCI-H2347; first compound 2.53 µM): 0.575
relative viability (NCI-H2347; first compound 8 µM): 0.612
relative viability (EKVX; first compound 0.08 µM): 0.387
relative viability (EKVX; first compound 0.8 µM): 0.381
relative viability (EKVX; first compound 2.53 µM): 0.412
relative viability (EKVX; first compound 8 µM): 0.417
relative viability (NCI-H1944; first compound 0.08 µM): 0.262
relative viability (NCI-H1944; first compound 0.8 µM): 0.261
relative viability (NCI-H1944; first compound 2.53 µM): 0.262
relative viability (NCI-H1944; first compound 8 µM): 0.276
relative viability (NCI-H1915; first compound 0.08 µM): 0.463
relative viability (NCI-H1915; first compound 0.8 µM): 0.448
relative viability (NCI-H1915; first compound 2.53 µM): 0.458
relative viability (NCI-H1915; first compound 8 µM): 0.49
relative viability (NCI-H2087; first compound 0.08 µM): 0.28
relative viability (NCI-H2087; first compound 0.8 µM): 0.308
relative viability (NCI-H2087; first compound 2.53 µM): 0.222
relative viability (NCI-H2087; first compound 8 µM): 0.217
relative viability (LK-2; first compound 0.08 µM): 0.161
relative viability (LK-2; first compound 0.8 µM): 0.172
relative viability (LK-2; first compound 2.53 µM): 0.147
relative viability (LK-2; first compound 8 µM): 0.177
relative viability (CAL-12T; first compound 0.08 µM): 0.315
relative viability (CAL-12T; first compound 0.8 µM): 0.406
relative viability (CAL-12T; first compound 2.53 µM): 0.372
relative viability (CAL-12T; first compound 8 µM): 0.358
relative viability (LXF-289; first compound 0.08 µM): 0.192
relative viability (LXF-289; first compound 0.8 µM): 0.187
relative viability (LXF-289; first compound 2.53 µM): 0.169
relative viability (LXF-289; first compound 8 µM): 0.271
relative viability (NCI-H661; first compound 0.08 µM): 0.366
relative viability (NCI-H661; first compound 0.8 µM): 0.34
relative viability (NCI-H661; first compound 2.53 µM): 0.318
relative viability (NCI-H661; first compound 8 µM): 0.337
relative viability (NCI-H2085; first compound 0.08 µM): 0.784
relative viability (NCI-H2085; first compound 0.8 µM): 0.939
relative viability (NCI-H2085; first compound 2.53 µM): 0.884
relative viability (NCI-H2085; first compound 8 µM): 0.859
relative viability (SK-LU-1; first compound 0.08 µM): 0.377
relative viability (SK-LU-1; first compound 0.8 µM): 0.369
relative viability (SK-LU-1; first compound 2.53 µM): 0.379
relative viability (SK-LU-1; first compound 8 µM): 0.323
relative viability (COR-L 105; first compound 0.08 µM): 0.363
relative viability (COR-L 105; first compound 0.8 µM): 0.386
relative viability (COR-L 105; first compound 2.53 µM): 0.367
relative viability (COR-L 105; first compound 8 µM): 0.35
relative viability (H3255; first compound 0.08 µM): 0.716
relative viability (H3255; first compound 0.8 µM): 0.595
relative viability (H3255; first compound 2.53 µM): 0.812
relative viability (H3255; first compound 8 µM): 0.851
relative viability (NCI-H522; first compound 0.08 µM): 0.617
relative viability (NCI-H522; first compound 0.8 µM): 0.577
relative viability (NCI-H522; first compound 2.53 µM): 0.513
relative viability (NCI-H522; first compound 8 µM): 0.532
